# In ChEMBL document CHEMBL1201862, “PubChem BioAssay data set” (2004):
#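 Briefly, cells in 96-well plates were exposed to five compound concentrations for 48 h, and endpoints were estimated by linear interpolation. GI50 is the concentration that inhibits growth by half.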 Active and inactive are the calls of the source. Cut-off read from the data, not from the text of the source: active = GI50 up to about 1.1 µM and inactive = higher.
# Assays:
# Test in all cases: inhibition of tumour cell growth, NCI panel, 48 h
# [1] = test system: NCI-H23
# [2] = test system: SF-268
# [3] = test system: PC-3
# [4] = test system: NCI-H460
# [5] = test system: SK-MEL-5
# [6] = test system: RPMI-8226
# [7] = test system: NCI-H226
# [8] = test system: M14
# [9] = test system: OVCAR-4
# [10] = test system: SF-295
# [11] = test system: BT-549
# [12] = test system: KM12
# [13] = test system: A498
# [14] = test system: MDA-N
# [15] = test system: OVCAR-5
# [16] = test system: OVCAR-8
# [17] = test system: UACC-257
# [18] = test system: 786-0
# [19] = test system: TK-10
# [20] = test system: SK-MEL-28
Compound,GI50 [1],GI50 [2],GI50 [3],GI50 [4],GI50 [5],GI50 [6],GI50 [7],GI50 [8],GI50 [9],GI50 [10],GI50 [11],GI50 [12],GI50 [13],GI50 [14],GI50 [15],GI50 [16],GI50 [17],GI50 [18],GI50 [19],GI50 [20]
CCCc1c(O)c(=O)c2c(OC)cc(OC)c3c4c(OC)cc(OC)c5c(=O)c(O)c(CCC)c(c1c23)c54,0.474 µM (active),0.714 µM (active),0.443 µM (active),0.301 µM (active),0.533 µM (active),0.192 µM (active),1.63 µM (inactive),0.755 µM (active),2.56 µM (inactive),0.37 µM (active),0.34 µM (active),0.458 µM (active),0.678 µM (active),0.425 µM (active),2.13 µM (inactive),0.513 µM (active),1.15 µM (inactive),0.676 µM (active),1.9 µM (inactive),3.13 µM (inactive)
CC(C)N(CC(=O)O)CC(=O)O,> 100 µM (inactive),> 100 µM (inactive),> 100 µM (inactive),> 100 µM (inactive),> 100 µM (inactive),> 100 µM (inactive),> 100 µM (inactive),> 100 µM (inactive),> 100 µM (inactive),> 100 µM (inactive),> 100 µM (inactive),> 100 µM (inactive),> 100 µM (inactive),> 100 µM (inactive),> 100 µM (inactive),> 100 µM (inactive),> 100 µM (inactive),> 100 µM (inactive),> 100 µM (inactive),> 100 µM (inactive)
c1ccc(CSc2ccccc2CN2CCN(Cc3ccccc3SCc3ccccc3)CCN(Cc3ccccc3SCc3ccccc3)CC2)cc1,0.951 µM (active),2.94 µM (inactive),1.26 µM (inactive),1.19 µM (inactive),1.57 µM (inactive),0.384 µM (active),1.81 µM (inactive),1.55 µM (inactive),1.45 µM (inactive),1.04 µM (active),1.87 µM (inactive),1.58 µM (inactive),2.25 µM (inactive),1.52 µM (inactive),1.64 µM (inactive),1.22 µM (inactive),1.39 µM (inactive),1.61 µM (inactive),2.3 µM (inactive),1.88 µM (inactive)
CC(C)COC(c1ccc2c(c1)OCO2)C(C)Br (stereo not given),26.2 µM (inactive),25.2 µM (inactive),30.9 µM (inactive),20 µM (inactive),18.7 µM (inactive),21.6 µM (inactive),26.4 µM (inactive),21.1 µM (inactive),34.1 µM (inactive),20 µM (inactive),35.5 µM (inactive),22.9 µM (inactive),33.4 µM (inactive),21.6 µM (inactive),19.7 µM (inactive),30.2 µM (inactive),23 µM (inactive),23.4 µM (inactive),30.9 µM (inactive),48.6 µM (inactive)
N#CSc1[nH]cnc1C(N)=O,> 100 µM (inactive),> 100 µM (inactive),> 100 µM (inactive),> 100 µM (inactive),> 100 µM (inactive),4.22 µM (inactive),> 100 µM (inactive),62.7 µM (inactive),> 100 µM (inactive),> 100 µM (inactive),> 80.7 µM (inactive),> 100 µM (inactive),> 100 µM (inactive),22.1 µM (inactive),> 100 µM (inactive),> 100 µM (inactive),> 100 µM (inactive),40.9 µM (inactive),> 100 µM (inactive),76.2 µM (inactive)
Cc1cc([C@H](C#N)c2nc3ccccc3s2)nc(Cl)n1,2.78 µM (inactive),5.01 µM (inactive),3.54 µM (inactive),3.45 µM (inactive),1.79 µM (inactive),2.3 µM (inactive),3.46 µM (inactive),5.57 µM (inactive),5.82 µM (inactive),15.5 µM (inactive),3.94 µM (inactive),2.78 µM (inactive),15.2 µM (inactive),3.55 µM (inactive),16.3 µM (inactive),3.18 µM (inactive),5.41 µM (inactive),4.76 µM (inactive),4.98 µM (inactive),6.67 µM (inactive)
CN(C)CC1CCCC(CN2CCCCC2)C1=O (stereo not given),17.9 µM (inactive),19.5 µM (inactive),15.6 µM (inactive),> 55.8 µM (inactive),18.7 µM (inactive),0.158 µM (active),20.6 µM (inactive),7.73 µM (inactive),4.25 µM (inactive),> 93.5 µM (inactive),15.2 µM (inactive),19.4 µM (inactive),38.5 µM (inactive),14.4 µM (inactive),31.4 µM (inactive),14.2 µM (inactive),14.6 µM (inactive),2.74 µM (inactive),8.73 µM (inactive),13.9 µM (inactive)
COC1C(O)=C2C(=O)O/C(C)=C/C=C/C=C/C=C\CC(c3ccccc3)NC(=O)\C=C/C=C\C=C\C=C\[C@@]2(C)[C@@H]1O (stereo not given in full),0.0144 µM (active),< 0.028 µM (active),< 0.01 µM (active),< 0.01 µM (active),0.0395 µM (active),< 0.01 µM (active),0.0175 µM (active),< 0.0371 µM (active),0.0444 µM (active),< 0.01 µM (active),< 0.01 µM (active),< 0.0146 µM (active),0.0129 µM (active),0.033 µM (active),0.0234 µM (active),0.0157 µM (active),< 0.0129 µM (active),0.017 µM (active),< 0.0361 µM (active),0.0155 µM (active)
CCOC(=O)CCSc1nc2ccc(I)cc2c(=O)n1Cc1ccccc1,15.6 µM (inactive),27.2 µM (inactive),41.7 µM (inactive),22.6 µM (inactive),12.6 µM (inactive),5.22 µM (inactive),21.6 µM (inactive),24.5 µM (inactive),19.5 µM (inactive),21.7 µM (inactive),35.6 µM (inactive),22.3 µM (inactive),24.6 µM (inactive),25.7 µM (inactive),> 83.8 µM (inactive),37.5 µM (inactive),25.5 µM (inactive),25.6 µM (inactive),39.4 µM (inactive),> 65.6 µM (inactive)
CC(C)c1nc(Cl)c(Cl)c(Cl)n1,4.06 µM (inactive),1.91 µM (inactive),4.31 µM (inactive),12.6 µM (inactive),16.2 µM (inactive),1.31 µM (inactive),17.7 µM (inactive),5.51 µM (inactive),15.5 µM (inactive),14.5 µM (inactive),0.621 µM (active),8.39 µM (inactive),23.8 µM (inactive),4.35 µM (inactive),5.77 µM (inactive),2.1 µM (inactive),4.29 µM (inactive),2.99 µM (inactive),11.4 µM (inactive),14.2 µM (inactive)
CN(C)c1ccc(C(=C2C=CC(=[N+](C)C)C=C2)c2c(O)c(S(=O)(=O)[O-])cc3cc(S(=O)(=O)O)ccc23)cc1,> 100 µM (inactive),> 100 µM (inactive),> 100 µM (inactive),> 100 µM (inactive),> 100 µM (inactive),> 100 µM (inactive),> 100 µM (inactive),> 100 µM (inactive),> 100 µM (inactive),> 100 µM (inactive),> 100 µM (inactive),> 100 µM (inactive),> 100 µM (inactive),> 100 µM (inactive),> 100 µM (inactive),> 100 µM (inactive),> 100 µM (inactive),> 100 µM (inactive),> 100 µM (inactive),> 100 µM (inactive)
COC(=O)[C@H](Cc1ccccc1)NC(=O)c1ccc(CNC(=O)/C=C/c2ccc(OCc3ccccc3)cc2)cc1,14.5 µM (inactive),10.8 µM (inactive),14.7 µM (inactive),19.5 µM (inactive),7.87 µM (inactive),39 µM (inactive),21.3 µM (inactive),2.44 µM (inactive),6.55 µM (inactive),18.4 µM (inactive),21.5 µM (inactive),19.1 µM (inactive),2.59 µM (inactive),2.19 µM (inactive),38.2 µM (inactive),13.3 µM (inactive),2.49 µM (inactive),5.11 µM (inactive),13.5 µM (inactive),4.49 µM (inactive)
CO/N=C(\C(=O)[N-]n1cn[n+](CC(=O)OC(C)(C)C)c1)c1csc(NC(c2ccccc2)(c2ccccc2)c2ccccc2)n1,> 10 µM (inactive),> 10 µM (inactive),> 10 µM (inactive),> 10 µM (inactive),> 10 µM (inactive),> 10 µM (inactive),> 10 µM (inactive),> 10 µM (inactive),> 10 µM (inactive),> 10 µM (inactive),> 10 µM (inactive),> 10 µM (inactive),> 10 µM (inactive),> 10 µM (inactive),> 10 µM (inactive),> 10 µM (inactive),> 10 µM (inactive),> 10 µM (inactive),> 10 µM (inactive),> 10 µM (inactive)
CC(C)=CC[C@H]1C[C@]2(CC=C(C)C)C(=O)[C@@](CC=C(C)C)(C(=O)C(C(=O)c3ccccc3)=C2O)C1(C)C [6-EPI-CLUSIANONE],7.67 µM (inactive),10.2 µM (inactive),4.78 µM (inactive),3.3 µM (inactive),4.53 µM (inactive),3.37 µM (inactive),14.1 µM (inactive),6.65 µM (inactive),5.15 µM (inactive),4.27 µM (inactive),8.93 µM (inactive),3.88 µM (inactive),9.46 µM (inactive),5.21 µM (inactive),4.98 µM (inactive),5.78 µM (inactive),4.71 µM (inactive),5.51 µM (inactive),5.15 µM (inactive),10.2 µM (inactive)
